Source: US8623898B2, “Glycine transporter inhibiting substances” (Taisho Pharmaceutical Co., Ltd., priority 2009, dated 2014)
Read-outs that look alike come from different tables or passages of the source.

Target: T1, human type 1 glycine transporter (GlyT1) (Homo sapiens, UniProt P48067)
T1 construct: Used in the experiment were T98G cells (glioma cells) developing a human type 1 glycine transporter (GlyT1); endogenous in cells; host or cells: T98G human glioma cells
T1 sequence (P48067 1-706): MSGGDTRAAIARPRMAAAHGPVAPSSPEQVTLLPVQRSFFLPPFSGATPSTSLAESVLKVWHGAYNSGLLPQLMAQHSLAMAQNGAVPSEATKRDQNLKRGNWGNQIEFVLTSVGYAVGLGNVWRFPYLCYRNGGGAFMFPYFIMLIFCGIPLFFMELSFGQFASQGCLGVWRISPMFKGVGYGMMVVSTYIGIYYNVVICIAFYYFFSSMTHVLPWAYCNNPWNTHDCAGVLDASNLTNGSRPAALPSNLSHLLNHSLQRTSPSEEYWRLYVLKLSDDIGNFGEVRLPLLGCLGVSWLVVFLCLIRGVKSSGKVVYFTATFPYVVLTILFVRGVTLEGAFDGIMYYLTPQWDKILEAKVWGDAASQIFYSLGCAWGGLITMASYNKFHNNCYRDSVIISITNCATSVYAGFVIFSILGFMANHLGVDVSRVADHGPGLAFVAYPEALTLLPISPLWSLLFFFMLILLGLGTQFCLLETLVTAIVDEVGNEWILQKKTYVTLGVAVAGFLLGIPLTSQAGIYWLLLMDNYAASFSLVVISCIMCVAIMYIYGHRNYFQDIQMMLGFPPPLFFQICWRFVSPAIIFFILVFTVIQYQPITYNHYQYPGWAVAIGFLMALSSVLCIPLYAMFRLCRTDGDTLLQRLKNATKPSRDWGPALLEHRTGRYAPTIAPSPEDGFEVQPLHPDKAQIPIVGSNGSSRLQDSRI
Assay: Glycine uptake inhibition experiment ([3H] glycine uptake in T98G cells)
Assay type: cell-based
Settings: [3H] glycine 250 nM, read-out: IC50 (glycine uptake inhibiting activity)
Protocol: A glycine uptake inhibition experiment was conducted in accordance with the method described in Neuron, 8, 927-935, 1992. Used in the experiment were T98G cells (glioma cells) developing a human type 1 glycine transporter (GlyT1). The T98G cells were seeded in a 96-well plate at a density of 2.0×10^4 cells per well and cultured overnight in a CO2 incubator. The test substance was first dissolved in a 100% DMSO solution and then dissolved in a 10 mM HEPES buffer solution (pH 7.4) supplemented with 150 mM sodium chloride, 1 mM calcium chloride, 5 mM potassium chloride, 1 mM magnesium chloride, 10 mM glucose, and 0.2% bovine serum albumin. After removing the cell culture medium, the test substance was subjected to a 10-min pretreatment. Thereafter, the test substance and [^3H] glycine (final concentration: 250 nM) were added to the cells and reaction was performed at room temperature for 15 minutes. After the end of the reaction, the extracellular fluid was aspirated with a manifold to remove the excess marker glycine present outside of the cells; thereafter, the cells were lysed with an aqueous solution of 0.5 M sodium hydroxide. The glycine content in the cells was determined by measuring the radioactivity in the cell lysate with a liquid scintillation counter. With the amount of glycine uptake in the presence of 10 μM ALX5407 being referred to as the nonspecific uptake, the amount of specific uptake was calculated by subtracting the amount of nonspecific uptake from the total amount of uptake in the absence of 10 μM ALX5407. In addition, glycine uptake inhibiting activity (IC50) was calculated from an inhibition curve for the concentration of the test substance ranging from 10^−9 to 10^−5 M.

Row | IC50 (15 min, room temperature) [µM] | IC50 [µM] | SMILES
1 | 0.0195 | < 0.1 | Cn1cnc(C(=O)N(CCC2CCOCC2)Cc2cccc(OC(F)(F)F)c2)c1 [Compound 1]
2 | – | ≥ 1 | Cn1cc(C(=O)N(Cc2cccc(OC(F)(F)F)c2)C2CCOCC2)nc1Br [Compound 6]
3 | – | ≥ 1 | Cc1nc(C(=O)N(Cc2cccc(OC(F)(F)F)c2)C2CCOCC2)c[nH]1 [Compound 8]
4 | – | ≥ 1 | Cc1nc(C(=O)N(Cc2cccc(OC(F)(F)F)c2)C2CCOCC2)cn1C [Compound 9]
5 | 0.0031 | < 0.1 | CCn1cnc(C(=O)N(Cc2cccc(OC(F)(F)F)c2)C2CCOCC2)c1 [Compound 13]
6 | – | ≥ 1 | O=C(c1cn(CC(F)(F)F)cn1)N(Cc1cccc(OC(F)(F)F)c1)C1CCOCC1 [Compound 14]
7 | – | ≥ 1 | O=C(c1nc[nH]n1)N(Cc1cccc(OC(F)(F)F)c1)C1CCOCC1 [Compound 19]
8 | – | ≥ 1 | COCCn1cnc(C(=O)N(Cc2cccc(OC(F)(F)F)c2)C2CCOCC2)c1 [Compound 20]
9 | – | < 0.1 | COc1cccc(CN(C(=O)c2cn(C)cn2)C2CCOCC2)c1 [Compound 23]
10 | 0.0106 | < 0.1 | CCn1cnc(C(=O)N(Cc2cccc(OC(F)(F)F)c2)C2CCOCC2)n1 [Compound 31]
11 | – | ≥ 1 | O=C(c1ncn(C(F)F)n1)N(Cc1cccc(OC(F)(F)F)c1)C1CCOCC1 [Compound 75]

Continued, molecule first:

Row | SMILES | IC50 (15 min, room temperature) [µM] | IC50 [µM]
12 | Cn1cnc(C(=O)N(Cc2ccc(F)c(C(F)(F)F)c2)C2CCOCC2)c1 [Compound 25] | 0.0041 | < 0.1
13 | O=C(c1nc[nH]n1)N(Cc1cccc(Cl)c1)C1CCOCC1 [Compound 28] | – | ≥ 1
14 | O=C(c1nc[nH]n1)N(Cc1ccc(F)c(Cl)c1)C1CCOCC1 [Compound 29] | – | ≥ 1
15 | O=C(c1nc[nH]n1)N(Cc1ccc(F)c(C(F)(F)F)c1)C1CCOCC1 [Compound 30] | – | ≥ 1
16 | Cn1cnc(C(=O)N(CCOc2ccc(Cl)cc2)C2CCOCC2)c1 [Compound 36] | – | < 0.1
17 | Cn1cnc(C(=O)N(CCOc2ccc(Cl)c(Cl)c2)C2CCOCC2)c1 [Compound 39] | – | < 0.1
18 | Cn1cnc(C(=O)N(Cc2cc(F)cc(C(F)(F)F)c2)C2CCOCC2)c1 [Compound 42] | 0.0269 | < 0.1
19 | Cn1cnc(C(=O)N(Cc2ccc(-c3ccccc3)cc2)C2CCOCC2)c1 [Compound 44] | – | ≥ 1
20 | CCn1cnc(C(=O)N(Cc2ccc(F)c(C(F)(F)F)c2)C2CCOCC2)n1 [Compound 45] | 0.0326 | < 0.1
21 | Cn1cnc(C(=O)N(CCc2ccccc2Cl)C2CCOCC2)n1 [Compound 47] | – | ≥ 1
22 | Cn1cnc(C(=O)N(Cc2ccc(OC(F)(F)F)cc2)C2CCOCC2)n1 [Compound 52] | – | ≥ 1
23 | Cn1cnc(C(=O)N(Cc2cccc(I)c2)C2CCOCC2)n1 [Compound 53] | 0.0382 | < 0.1
24 | Cn1cnc(C(=O)N(Cc2ccc(F)c(Br)c2)C2CCOCC2)n1 [Compound 57] | 0.0459 | < 0.1
25 | Cn1cnc(C(=O)N(Cc2cc(OC(F)(F)F)ccc2F)C2CCOCC2)n1 [Compound 63] | – | ≥ 1
26 | Cn1cnc(C(=O)N(Cc2cccc(OC(F)F)c2)C2CCOCC2)n1 [Compound 67] | 0.0422 | < 0.1
27 | Cn1cnc(C(=O)N(Cc2ccc(OC(F)F)c(OC(F)F)c2)C2CCOCC2)n1 [Compound 68] | – | ≥ 1
28 | Cn1cnc(C(=O)N(Cc2ccc(Cl)c(OC(F)(F)F)c2)C2CCOCC2)n1 [Compound 69] | 0.0298 | < 0.1
29 | Cn1cnc(C(=O)N(Cc2cc(Cl)cc(OC(F)(F)F)c2)C2CCOCC2)n1 [Compound 73] | 0.0189 | < 0.1
30 | COC(=O)c1cccc(-c2cc(CN(C(=O)c3ncn(C)n3)C3CCOCC3)ccc2F)c1 [Compound 77] | 0.0105 | < 0.1
31 | Cn1cnc(C(=O)N(Cc2ccc(F)c(-c3cccc(CO)c3)c2)C2CCOCC2)n1 [Compound 78] | – | < 0.1
32 | Cn1cnc(C(=O)N(Cc2ccc(F)c(-c3ccccc3F)c2)C2CCOCC2)n1 [Compound 88] | 0.0451 | < 0.1
